Data published in ChEMBL document CHEMBL1201862, “PubChem BioAssay data set” (2004).
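Grown in 96-well plates, cells were treated for 48 hours with each compound at five concentrations. Insufficient inhibition: endpoint recorded as highest concentration tested. GI50 marks 50% less growth.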 Active and inactive are the calls of the source. Rule as the data show it: active = GI50 up to about 1.1 µM and inactive = higher.

Tests used:
Test in all cases: DTP human tumour cell line panel, 48 h
SNB-19 = tested on: SNB-19
Hs-578T = tested on: Hs-578T
HT-29 = tested on: HT-29
NCI-H460 = tested on: NCI-H460
HOP-62 = tested on: HOP-62
SF-268 = tested on: SF-268
OVCAR-3 = tested on: OVCAR-3
CAKI-1 = tested on: CAKI-1
OVCAR-4 = tested on: OVCAR-4
ACHN = tested on: ACHN
NCI-H23 = tested on: NCI-H23
K562 = tested on: K562
UO-31 = tested on: UO-31
NCI-H522 = tested on: NCI-H522
U-251 = tested on: U-251
NCI/ADR-RES = tested on: NCI/ADR-RES
RXF 393 = tested on: RXF 393
OVCAR-5 = tested on: OVCAR-5
EKVX = tested on: EKVX
SK-MEL-2 = tested on: SK-MEL-2
DU-145 = tested on: DU-145
MOLT-4 = tested on: MOLT-4
COLO 205 = tested on: COLO 205
SNB-75 = tested on: SNB-75
RPMI-8226 = tested on: RPMI-8226
SW-620 = tested on: SW-620
HCT-116 = tested on: HCT-116
UACC-62 = tested on: UACC-62
SF-295 = tested on: SF-295
NCI-H226 = tested on: NCI-H226
SK-OV-3 = tested on: SK-OV-3
SK-MEL-28 = tested on: SK-MEL-28
786-0 = tested on: 786-0
PC-3 = tested on: PC-3
LOX IMVI = tested on: LOX IMVI
MDA-MB-231 = tested on: MDA-MB-231
SK-MEL-5 = tested on: SK-MEL-5
IGROV-1 = tested on: IGROV-1
T47D = tested on: T47D
CCRF-CEM = tested on: CCRF-CEM
SN12C = tested on: SN12C
HCT-15 = tested on: HCT-15
KM12 = tested on: KM12
A549 = tested on: A549
MCF7 = tested on: MCF7
MDA-MB-435 = tested on: MDA-MB-435
BT-549 = tested on: BT-549
OVCAR-8 = tested on: OVCAR-8
SR = tested on: SR
A498 = tested on: A498
Malme-3M = tested on: Malme-3M
HL-60 = tested on: HL-60
MDA-N = tested on: MDA-N
HCC 2998 = tested on: HCC 2998
M14 = tested on: M14
SF-539 = tested on: SF-539
HOP-92 = tested on: HOP-92
UACC-257 = tested on: UACC-257
TK-10 = tested on: TK-10

With `CC/C=C/C[C@H](O)[C@H]1C[C@H]2O[C@H](CC(=O)OC)C[C@H]2O1` the GI50 (SNB-19) was > 100000 nM (inactive), the GI50 (Hs-578T) was > 100000 nM (inactive) and the GI50 (HT-29) was > 100000 nM (inactive). The GI50 (NCI-H460) was > 100000 nM (inactive), the GI50 (HOP-62) was > 100000 nM (inactive) and the GI50 (SF-268) was > 100000 nM (inactive). The GI50 (OVCAR-3) was > 100000 nM (inactive), the GI50 (CAKI-1) was > 100000 nM (inactive) and the GI50 (OVCAR-4) was > 100000 nM (inactive). For the same molecule, the GI50 (ACHN) was > 100000 nM (inactive), the GI50 (NCI-H23) was > 100000 nM (inactive) and the GI50 (K562) was > 100000 nM (inactive). The GI50 (UO-31) was > 100000 nM (inactive), the GI50 (NCI-H522) was > 100000 nM (inactive) and the GI50 (U-251) was > 100000 nM (inactive). The GI50 (NCI/ADR-RES) was > 100000 nM (inactive), the GI50 (RXF 393) was > 100000 nM (inactive) and the GI50 (OVCAR-5) was > 100000 nM (inactive). For the same molecule, the GI50 (EKVX) was > 100000 nM (inactive), the GI50 (SK-MEL-2) was > 100000 nM (inactive) and the GI50 (DU-145) was > 100000 nM (inactive). For the same molecule, the GI50 (MOLT-4) was > 100000 nM (inactive), the GI50 (COLO 205) was > 100000 nM (inactive) and the GI50 (SNB-75) was > 100000 nM (inactive). The GI50 (RPMI-8226) was > 100000 nM (inactive), the GI50 (SW-620) was > 100000 nM (inactive) and the GI50 (HCT-116) was > 100000 nM (inactive). For the same molecule, the GI50 (UACC-62) was > 100000 nM (inactive), the GI50 (SF-295) was > 100000 nM (inactive) and the GI50 (NCI-H226) was > 100000 nM (inactive). The GI50 (SK-OV-3) was > 100000 nM (inactive), the GI50 (SK-MEL-28) was > 100000 nM (inactive) and the GI50 (786-0) was > 100000 nM (inactive). For the same molecule, the GI50 (PC-3) was > 100000 nM (inactive), the GI50 (LOX IMVI) was > 100000 nM (inactive) and the GI50 (MDA-MB-231) was > 100000 nM (inactive). For the same molecule, the GI50 (SK-MEL-5) was > 100000 nM (inactive), the GI50 (IGROV-1) was > 100000 nM (inactive) and the GI50 (T47D) was > 100000 nM (inactive). The GI50 (CCRF-CEM) was > 100000 nM (inactive), the GI50 (SN12C) was > 100000 nM (inactive) and the GI50 (HCT-15) was > 100000 nM. The GI50 (KM12) was > 100000 nM (inactive), the GI50 (A549) was > 100000 nM (inactive) and the GI50 (MCF7) was > 100000 nM (inactive). For the same molecule, the GI50 (MDA-MB-435) was > 100000 nM (inactive), the GI50 (BT-549) was > 100000 nM (inactive) and the GI50 (OVCAR-8) was > 100000 nM (inactive). For the same molecule, the GI50 (SR) was > 100000 nM (inactive), the GI50 (A498) was > 100000 nM (inactive) and the GI50 (Malme-3M) was > 100000 nM (inactive). The GI50 (HL-60) was > 100000 nM (inactive), the GI50 (MDA-N) was > 100000 nM (inactive) and the GI50 (HCC 2998) was > 100000 nM (inactive). The GI50 (M14) was > 100000 nM (inactive).

For `COc1nc2c(N3CCCC3)nc(N3CCNCC3)nc2nc1NCc1ccccc1`, the GI50 (SNB-19) was 1710 nM (inactive), the GI50 (Hs-578T) was 2080 nM (inactive) and the GI50 (SF-539) was 1750 nM (inactive). The GI50 (HT-29) was 1070 nM (active), the GI50 (NCI-H460) was 1950 nM (inactive) and the GI50 (HOP-62) was 855 nM (active). For the same molecule, the GI50 (SF-268) was 2030 nM (inactive), the GI50 (OVCAR-3) was 755 nM (active) and the GI50 (CAKI-1) was 2380 nM (inactive). The GI50 (OVCAR-4) was 3030 nM (inactive), the GI50 (ACHN) was 1980 nM (inactive) and the GI50 (NCI-H23) was 2160 nM (inactive). The GI50 (K562) was 1670 nM (inactive), the GI50 (UO-31) was 1480 nM (inactive) and the GI50 (NCI-H522) was 1090 nM (active). The GI50 (U-251) was 1350 nM (inactive), the GI50 (NCI/ADR-RES) was 4170 nM (inactive) and the GI50 (RXF 393) was 1280 nM (inactive). For the same molecule, the GI50 (OVCAR-5) was 2610 nM (inactive), the GI50 (EKVX) was 2770 nM (inactive) and the GI50 (SK-MEL-2) was 1660 nM (inactive). The GI50 (DU-145) was 1750 nM (inactive), the GI50 (MOLT-4) was 1900 nM (inactive) and the GI50 (COLO 205) was 524 nM (active). For the same molecule, the GI50 (SNB-75) was 1440 nM (inactive), the GI50 (RPMI-8226) was 1690 nM (inactive) and the GI50 (SW-620) was 2770 nM (inactive). For the same molecule, the GI50 (HCT-116) was 1050 nM (active), the GI50 (UACC-62) was 1860 nM (inactive) and the GI50 (SF-295) was 1740 nM (inactive). For the same molecule, the GI50 (NCI-H226) was 2340 nM (inactive), the GI50 (SK-OV-3) was 2050 nM (inactive) and the GI50 (SK-MEL-28) was 2010 nM (inactive). The GI50 (786-0) was 1330 nM (inactive), the GI50 (PC-3) was 2280 nM (inactive) and the GI50 (HOP-92) was 1790 nM (inactive). For the same molecule, the GI50 (LOX IMVI) was 1470 nM (inactive), the GI50 (MDA-MB-231) was 1630 nM (inactive) and the GI50 (SK-MEL-5) was 1530 nM (inactive). The GI50 (IGROV-1) was 2030 nM (inactive), the GI50 (UACC-257) was 1740 nM (inactive) and the GI50 (T47D) was 1410 nM (inactive). For the same molecule, the GI50 (CCRF-CEM) was 1580 nM (inactive), the GI50 (SN12C) was 2030 nM (inactive) and the GI50 (HCT-15) was 1720 nM. The GI50 (KM12) was 1610 nM (inactive), the GI50 (A549) was 2010 nM (inactive) and the GI50 (MCF7) was 1760 nM (inactive). For the same molecule, the GI50 (MDA-MB-435) was 1390 nM (inactive), the GI50 (BT-549) was 1850 nM (inactive) and the GI50 (OVCAR-8) was 2830 nM (inactive). The GI50 (SR) was 1320 nM (inactive), the GI50 (Malme-3M) was 2070 nM (inactive) and the GI50 (HL-60) was 1680 nM (inactive). The GI50 (MDA-N) was 1210 nM (inactive), the GI50 (HCC 2998) was 1390 nM (inactive) and the GI50 (TK-10) was 1760 nM (inactive). The GI50 (M14) was 1650 nM (inactive).
